# Data from US12202823B2 (QUIMATRYX, S.L., priority 2019, dated 2025).
# Where two headings read alike, the source gives them in different places.
# How the values were obtained:
# hHDAC5 = hHDAC5 (Homo sapiens (Human), UniProt Q9UQL6); test: hHDAC5 inhibition protocol; settings: read-out: IC50 (nM) of enzyme activity HDAC5; selectivity table
# Experimental: (§1) After enzymatic reactions, reaction was stopped by adding 5 μl of 10 μM solution of a known inhibitor. The fluorescent signal of substrate and product was measured by means of microfluidics mobility assay in a EZ Reader II equipment. The percentage of conversion of substrate into product was calculated by the equipment software based on the area of the peaks.
# (§2) The percentage of conversion data were analyzed using the computer software, Graphpad Prism. In the absence of the compound, the conversion (Ct) in each data set was defined as 100% activity. In the absence of HDAC, the conversion (Cb) in each data set was defined as 0% activity. The percent activity in the presence of each compound was calculated according to the following equation: % inhibition=(Ct−C)/(Ct−Cb), where C=the percentage of conversion in the presence of the compound.
# (§3) The values of % inhibition versus a series of compound concentrations were then plotted using non-linear regression analysis of Sigmoidal dose-response curve generated with the equation Y=B+(T−B)/1+10((Log EC50−X)×Hill Slope), where Y=percent inhibition, B=minimum percent inhibition, T=maximum percent inhibition, X=logarithm of compound and Hill Slope=slope factor or Hill coefficient. The IC50 value was determined by the concentration causing a half-maximal percent activity.
# The buffer assay used in the inhibition hHDAC5 assay is: Hepes 50 mM, KCl 100 mM, Tween 20 0.001%, BSA 0.01%; pH=7.4.
# hHDAC2 = hHDAC2 (Homo sapiens (Human), UniProt Q92769); test: hHDAC2 inhibition protocol; settings: read-out: IC50 (nM) of enzyme activity HDAC2; selectivity table
# Experimental: as §1, §2, §3
# The buffer assay used in the inhibition hHDAC2 assay is: Hepes 50 mM, KCl 100 mM, Tween 20 0.001%, BSA 0.01%; pH=7.4.
# hHDAC3 = hHDAC3 (Homo sapiens (Human), UniProt O15379); test: hHDAC3 inhibition protocol; settings: read-out: IC50 (nM) of enzyme activity HDAC3; selectivity table
# Experimental: as §1, §2, §3
# The buffer assay used in the inhibition hHDAC3 assay is: Hepes 50 mM, KCl 100 mM, Tween 20 0.001%, BSA 0.01%; pH=7.4.
# hHDAC1 = hHDAC1 (Homo sapiens (Human), UniProt Q13547); test: hHDAC1 inhibition protocol; settings: read-out: IC50 (nM) of enzyme activity HDAC1; selectivity table
# Experimental: as §1, §2, §3
# The buffer assay used in the inhibition hHDAC1 assay is: Hepes 50 mM, KCl 100 mM, Tween 20 0.001%, BSA 0.01%; pH=7.4.
# hHDAC4 = hHDAC4 (Homo sapiens (Human), UniProt P56524); test: hHDAC4 inhibition protocol; settings: read-out: IC50 (nM) of enzyme activity HDAC4; selectivity table
# Experimental: as §1, §2, §3
# The buffer assay used in the inhibition hHDAC4 assay is: Hepes 50 mM, KCl 100 mM, Tween 20 0.001%, BSA 0.01%; pH=7.4.
# hHDAC8 = hHDAC8 (Homo sapiens (Human), UniProt Q9BY41); test: hHDAC8 inhibition protocol; settings: read-out: IC50 (nM) of enzyme activity HDAC8; selectivity table
# Experimental: as §1, §2, §3
# The buffer assay used in the inhibition hHDAC8 assay is: Hepes 50 mM, KCl 100 mM, Tween 20 0.001%, BSA 0.01%; pH=7.4.
# hHDAC7 = hHDAC7 (Homo sapiens (Human), UniProt Q8WUI4); test: hHDAC7 inhibition protocol; settings: read-out: IC50 (nM) of enzyme activity HDAC7; selectivity table
# Experimental: The fluorescent signal of substrate and product was measured by means of microfluidics mobility assay in a EZ Reader II equipment. The percentage of conversion of substrate into product was calculated by the equipment software based on the area of the peaks.
# as §2, §3
# The buffer assay used in the inhibition hHDAC7 assay is: Hepes 50 mM, KCl 100 mM, Tween 20 0.001%, BSA 0.01%; pH=7.4.
# hHDAC10 = hHDAC10 (Homo sapiens (Human), UniProt Q969S8); test: HDAC10 inhibition protocol; settings: read-out: IC50 (nM) of enzyme activity HDAC10; selectivity table
# Experimental: as §1, §2, §3
# The buffer assay used in the inhibition hHDAC10 assay is: Hepes 50 mM, KCl 100 mM, Tween 20 0.001%, BSA 0.01%; pH=7.4.
# hHDAC6 = hHDAC6 (Homo sapiens (Human), UniProt Q9UBN7); test: HDAC6 inhibition protocol; settings: read-out: IC50 (nM) of enzyme activity HDAC6
# Experimental: as §1, §2, §3
# The buffer assay used in the inhibition hHDAC6 assay is: Hepes 50 mM, KCl 100 mM, Tween 20 0.001%, BSA 0.01%; pH=7.4.
# hHDAC9 = hHDAC9 (Homo sapiens (Human), UniProt Q9UKV0); test: hHDAC9 inhibition protocol; settings: read-out: IC50 (nM) of enzyme activity HDAC9; selectivity table
# Experimental: as §1, §2, §3
# The buffer assay used in the inhibition hHDAC9 assay is: Hepes 50 mM, KCl 100 mM, Tween 20 0.001%, BSA 0.01%; pH=7.4.
# [1] = hHDAC6 1.20 nM, Acetylated Peptide A 2 μM, 1 hour at RT
# Chain of hHDAC1 (Q13547 whole entry): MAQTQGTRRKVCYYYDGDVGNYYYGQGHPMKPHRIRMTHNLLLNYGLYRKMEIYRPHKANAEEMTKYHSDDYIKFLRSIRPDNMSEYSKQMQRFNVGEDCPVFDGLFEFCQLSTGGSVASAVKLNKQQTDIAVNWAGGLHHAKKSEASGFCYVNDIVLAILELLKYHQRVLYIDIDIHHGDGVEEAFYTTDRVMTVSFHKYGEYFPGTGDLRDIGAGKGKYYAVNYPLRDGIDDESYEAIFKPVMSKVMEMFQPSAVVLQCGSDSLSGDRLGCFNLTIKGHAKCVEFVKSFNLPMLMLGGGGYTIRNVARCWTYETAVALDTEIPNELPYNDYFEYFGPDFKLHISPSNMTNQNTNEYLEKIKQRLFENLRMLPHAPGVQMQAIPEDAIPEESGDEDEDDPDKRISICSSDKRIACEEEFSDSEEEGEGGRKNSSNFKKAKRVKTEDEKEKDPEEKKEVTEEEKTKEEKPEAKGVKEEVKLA
# Chain of hHDAC3 (O15379 whole entry): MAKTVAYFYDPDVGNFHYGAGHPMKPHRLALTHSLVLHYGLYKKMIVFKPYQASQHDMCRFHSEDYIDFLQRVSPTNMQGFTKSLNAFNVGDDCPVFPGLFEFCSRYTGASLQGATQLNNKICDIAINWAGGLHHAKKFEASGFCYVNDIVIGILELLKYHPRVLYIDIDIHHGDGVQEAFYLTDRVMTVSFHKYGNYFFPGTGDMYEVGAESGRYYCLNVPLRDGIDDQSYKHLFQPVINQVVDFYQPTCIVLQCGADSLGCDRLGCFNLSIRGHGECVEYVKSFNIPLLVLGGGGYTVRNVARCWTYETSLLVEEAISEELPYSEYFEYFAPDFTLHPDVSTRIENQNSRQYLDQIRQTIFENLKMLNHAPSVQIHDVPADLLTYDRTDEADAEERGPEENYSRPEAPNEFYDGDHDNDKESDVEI
# Chain of hHDAC3 (Q9Y618 395-489 partner): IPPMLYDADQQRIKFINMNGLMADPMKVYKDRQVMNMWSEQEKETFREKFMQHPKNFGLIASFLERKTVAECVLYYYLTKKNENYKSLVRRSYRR
# Chain of hHDAC2 (Q92769 whole entry): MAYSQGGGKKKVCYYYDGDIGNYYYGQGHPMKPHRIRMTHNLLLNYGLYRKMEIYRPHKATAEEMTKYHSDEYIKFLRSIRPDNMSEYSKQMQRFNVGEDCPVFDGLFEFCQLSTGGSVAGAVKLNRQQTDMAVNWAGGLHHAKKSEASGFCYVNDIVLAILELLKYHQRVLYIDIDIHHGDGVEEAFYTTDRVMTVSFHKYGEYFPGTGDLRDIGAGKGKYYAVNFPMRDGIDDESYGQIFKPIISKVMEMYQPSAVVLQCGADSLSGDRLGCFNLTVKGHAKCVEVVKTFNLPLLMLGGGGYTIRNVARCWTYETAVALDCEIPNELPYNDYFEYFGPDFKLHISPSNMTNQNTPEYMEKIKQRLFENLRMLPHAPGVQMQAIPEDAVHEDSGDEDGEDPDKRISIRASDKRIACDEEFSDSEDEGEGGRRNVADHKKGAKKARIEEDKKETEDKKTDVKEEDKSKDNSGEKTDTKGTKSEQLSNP
# Chain of hHDAC4 (P56524 whole entry): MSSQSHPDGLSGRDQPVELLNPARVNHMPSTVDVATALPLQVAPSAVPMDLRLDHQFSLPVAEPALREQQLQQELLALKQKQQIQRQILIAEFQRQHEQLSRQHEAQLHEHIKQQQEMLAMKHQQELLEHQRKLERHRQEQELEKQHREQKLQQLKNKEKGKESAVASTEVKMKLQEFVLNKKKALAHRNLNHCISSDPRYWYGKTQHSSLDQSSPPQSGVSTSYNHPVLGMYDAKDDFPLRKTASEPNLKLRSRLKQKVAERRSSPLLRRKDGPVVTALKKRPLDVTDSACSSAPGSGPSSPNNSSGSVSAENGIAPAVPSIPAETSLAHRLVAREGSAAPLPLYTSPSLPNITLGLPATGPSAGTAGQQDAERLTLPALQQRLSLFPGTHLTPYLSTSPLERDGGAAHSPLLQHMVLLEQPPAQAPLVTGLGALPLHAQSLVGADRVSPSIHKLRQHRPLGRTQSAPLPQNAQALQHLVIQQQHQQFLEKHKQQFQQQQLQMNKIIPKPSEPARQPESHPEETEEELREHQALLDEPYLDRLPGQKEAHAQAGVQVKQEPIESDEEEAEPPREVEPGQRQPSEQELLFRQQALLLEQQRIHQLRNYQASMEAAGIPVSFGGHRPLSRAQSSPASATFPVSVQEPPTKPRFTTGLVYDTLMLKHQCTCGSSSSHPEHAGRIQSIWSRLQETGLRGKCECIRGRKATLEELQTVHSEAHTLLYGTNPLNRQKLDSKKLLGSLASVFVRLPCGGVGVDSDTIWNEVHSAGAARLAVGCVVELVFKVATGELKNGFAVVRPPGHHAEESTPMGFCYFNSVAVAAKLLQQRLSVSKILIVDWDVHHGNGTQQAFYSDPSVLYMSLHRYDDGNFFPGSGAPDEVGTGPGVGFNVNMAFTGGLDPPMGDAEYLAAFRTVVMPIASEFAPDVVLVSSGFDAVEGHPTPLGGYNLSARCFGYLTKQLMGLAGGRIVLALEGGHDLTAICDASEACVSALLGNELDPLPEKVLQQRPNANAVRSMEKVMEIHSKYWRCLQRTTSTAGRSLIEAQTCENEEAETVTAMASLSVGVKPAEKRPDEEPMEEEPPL
# Chain of hHDAC8 (Q9BY41 whole entry): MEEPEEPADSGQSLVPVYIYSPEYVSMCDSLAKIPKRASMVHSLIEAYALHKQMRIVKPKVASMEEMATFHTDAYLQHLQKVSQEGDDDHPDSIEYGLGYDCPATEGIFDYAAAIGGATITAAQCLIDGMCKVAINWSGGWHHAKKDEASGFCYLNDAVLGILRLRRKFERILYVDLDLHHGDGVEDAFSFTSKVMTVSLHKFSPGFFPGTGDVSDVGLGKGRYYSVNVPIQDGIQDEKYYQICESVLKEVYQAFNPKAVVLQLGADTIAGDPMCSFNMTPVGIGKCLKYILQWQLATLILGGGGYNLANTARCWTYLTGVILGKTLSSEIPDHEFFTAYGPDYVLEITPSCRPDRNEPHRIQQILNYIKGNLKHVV
# Chain of hHDAC6 (Q9UBN7 whole entry): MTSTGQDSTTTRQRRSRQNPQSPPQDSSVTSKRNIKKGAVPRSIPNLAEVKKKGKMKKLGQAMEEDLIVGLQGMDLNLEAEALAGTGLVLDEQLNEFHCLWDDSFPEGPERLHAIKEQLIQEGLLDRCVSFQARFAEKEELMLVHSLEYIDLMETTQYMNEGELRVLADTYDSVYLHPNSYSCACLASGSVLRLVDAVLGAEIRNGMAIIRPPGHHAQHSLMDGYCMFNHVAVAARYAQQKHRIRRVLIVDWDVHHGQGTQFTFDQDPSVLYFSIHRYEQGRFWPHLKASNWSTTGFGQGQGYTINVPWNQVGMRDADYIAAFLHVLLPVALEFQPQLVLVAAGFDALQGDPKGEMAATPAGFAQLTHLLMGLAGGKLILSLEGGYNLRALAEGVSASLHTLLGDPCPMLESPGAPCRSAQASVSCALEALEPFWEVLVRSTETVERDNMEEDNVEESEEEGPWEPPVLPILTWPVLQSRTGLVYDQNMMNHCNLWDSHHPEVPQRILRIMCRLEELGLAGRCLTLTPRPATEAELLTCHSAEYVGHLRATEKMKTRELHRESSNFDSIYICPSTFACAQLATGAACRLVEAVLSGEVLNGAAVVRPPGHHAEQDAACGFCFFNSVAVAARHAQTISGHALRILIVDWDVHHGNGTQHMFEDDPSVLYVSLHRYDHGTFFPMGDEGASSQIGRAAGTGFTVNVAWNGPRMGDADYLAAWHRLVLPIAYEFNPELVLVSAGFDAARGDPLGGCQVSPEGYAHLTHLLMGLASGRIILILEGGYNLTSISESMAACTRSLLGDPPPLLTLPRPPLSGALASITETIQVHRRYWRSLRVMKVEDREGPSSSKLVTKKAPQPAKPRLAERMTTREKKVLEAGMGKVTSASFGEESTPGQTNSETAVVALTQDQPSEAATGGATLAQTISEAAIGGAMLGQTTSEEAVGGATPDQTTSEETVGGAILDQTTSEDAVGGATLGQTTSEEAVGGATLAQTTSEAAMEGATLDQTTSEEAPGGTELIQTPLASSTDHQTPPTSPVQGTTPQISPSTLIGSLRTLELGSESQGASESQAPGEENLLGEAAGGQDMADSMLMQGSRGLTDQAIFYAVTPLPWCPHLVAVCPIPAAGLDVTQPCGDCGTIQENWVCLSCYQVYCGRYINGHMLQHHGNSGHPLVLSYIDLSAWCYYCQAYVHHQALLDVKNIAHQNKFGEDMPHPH
# Chain of hHDAC10 (Q969S8 whole entry): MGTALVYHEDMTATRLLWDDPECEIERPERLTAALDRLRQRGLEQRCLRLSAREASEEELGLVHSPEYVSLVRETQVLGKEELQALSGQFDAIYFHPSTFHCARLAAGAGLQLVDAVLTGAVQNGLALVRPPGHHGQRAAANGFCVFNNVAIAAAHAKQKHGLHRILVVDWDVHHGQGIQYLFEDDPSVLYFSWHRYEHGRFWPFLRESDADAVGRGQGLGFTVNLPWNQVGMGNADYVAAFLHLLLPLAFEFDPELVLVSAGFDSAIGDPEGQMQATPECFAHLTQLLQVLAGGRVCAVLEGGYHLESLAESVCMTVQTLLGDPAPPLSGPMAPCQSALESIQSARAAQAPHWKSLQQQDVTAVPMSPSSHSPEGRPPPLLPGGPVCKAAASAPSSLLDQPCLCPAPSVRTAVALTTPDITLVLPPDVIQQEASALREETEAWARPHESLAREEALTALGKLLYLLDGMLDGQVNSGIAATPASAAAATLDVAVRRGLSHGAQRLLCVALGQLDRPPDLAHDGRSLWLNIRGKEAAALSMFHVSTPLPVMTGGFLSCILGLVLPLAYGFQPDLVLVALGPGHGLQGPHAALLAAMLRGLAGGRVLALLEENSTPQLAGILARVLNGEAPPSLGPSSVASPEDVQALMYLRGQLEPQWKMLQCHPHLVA
smiles,measurement,setting,value
"FC(F)c1nnc(-c2ccc(Cn3cc4ccccc4n3)cc2)o1 [Example 7, 2-(4-((2H-indazol-2-yl)methyl)phenyl)-5-(difluoromethyl)-1,3,4-oxadiazole]",IC50,hHDAC5,> 10000 nM
same,IC50,hHDAC2,> 10000 nM
same,IC50,hHDAC3,> 10000 nM
same,IC50,hHDAC1,> 10000 nM
same,IC50,hHDAC4,> 10000 nM
same,IC50,hHDAC8,> 10000 nM
same,IC50,hHDAC7,> 10000 nM
same,IC50,hHDAC10,> 10000 nM
same,IC50,hHDAC6; [1],365 nM
same,IC50,hHDAC6; selectivity table,365 nM
same,IC50,hHDAC9,> 10000 nM
"Fc1ccccc1-c1cn(Cc2ccc(-c3nnc(C(F)F)o3)cn2)nn1 [Example 48, 2-(difluoromethyl)-5-(6-((4-(2-fluorophenyl)-1H-1,2,3-triazol-1-yl)methyl)pyridin-3-yl)-1,3,4-oxadiazole]",IC50,hHDAC5,> 10000 nM
same,IC50,hHDAC2,> 10000 nM
same,IC50,hHDAC3,> 10000 nM
same,IC50,hHDAC1,> 10000 nM
same,IC50,hHDAC4,> 10000 nM
same,IC50,hHDAC8,> 10000 nM
same,IC50,hHDAC7,> 10000 nM
same,IC50,hHDAC10,> 10000 nM
same,IC50,hHDAC6; [1],24 nM
same,IC50,hHDAC6; selectivity table,24 nM
same,IC50,hHDAC9,> 10000 nM
"FC(F)c1nnc(-c2ccc(Cn3cc(-c4ccccc4)nn3)cc2)o1 [Example 27, 2-(difluoromethyl)-5-(4-((4-phenyl-1H-1,2,3-triazol-1-yl)methyl)phenyl)-1,3,4-oxadiazole]",IC50,hHDAC5,> 10000 nM
same,IC50,hHDAC2,> 10000 nM
same,IC50,hHDAC3,> 10000 nM
same,IC50,hHDAC1,> 10000 nM
same,IC50,hHDAC4,> 10000 nM
same,IC50,hHDAC8,> 10000 nM
same,IC50,hHDAC7,> 10000 nM
same,IC50,hHDAC10,> 10000 nM
same,IC50,hHDAC6; [1],85.3 nM
same,IC50,hHDAC6; selectivity table,85.3 nM
same,IC50,hHDAC9,> 10000 nM
"FC(F)c1nnc(-c2ccc(Cn3nnc(-c4cccc(Cl)c4)c3Cl)nc2)o1 [Example 54, 2-(6-((5-chloro-4-(3-chlorophenyl)-1H-1,2,3-triazol-1-yl)methyl)pyridin-3-yl)-5-(difluoromethyl)-1,3,4-oxadiazole]",IC50,hHDAC5,> 10000 nM
same,IC50,hHDAC2,> 10000 nM
same,IC50,hHDAC3,> 10000 nM
same,IC50,hHDAC1,> 10000 nM
same,IC50,hHDAC4,1490 nM
same,IC50,hHDAC8,> 10000 nM
same,IC50,hHDAC7,1400 nM
same,IC50,hHDAC10,> 10000 nM
same,IC50,hHDAC6; [1],34.1 nM
same,IC50,hHDAC6; selectivity table,34.1 nM
same,IC50,hHDAC9,2610 nM
"FC(F)c1nnc(-c2ccc(Cn3nc4cc(Cl)c(Cl)cc4n3)nc2)o1 [Example 25, 2-(6-((5,6-dichloro-2H-benzo[d][1,2,3]triazol-2-yl)methyl)pyridin-3-yl)-5-(difluoromethyl)-1,3,4-oxadiazole]",IC50,hHDAC5,> 10000 nM
same,IC50,hHDAC2,> 10000 nM
same,IC50,hHDAC3,> 10000 nM
same,IC50,hHDAC1,> 10000 nM
same,IC50,hHDAC4,> 10000 nM
same,IC50,hHDAC8,> 10000 nM
same,IC50,hHDAC7,> 10000 nM
same,IC50,hHDAC10,> 10000 nM
same,IC50,hHDAC6; [1],29.8 nM
same,IC50,hHDAC6; selectivity table,29.8 nM
same,IC50,hHDAC9,> 10000 nM
"FC(F)c1nnc(-c2ccc(Cn3cc(-c4cccc(Cl)c4)nn3)nc2)o1 [Example 45, 2-(6-((4-(3-chlorophenyl)-1H-1,2,3-triazol-1-yl)methyl)pyridin-3-yl)-5-(difluoromethyl)-1,3,4-oxadiazole]",IC50,hHDAC6; [1],33.5 nM
"FC(F)c1nnc(-c2ccc(Cn3ccc4ccccc43)cc2)o1 [Example 1, 2-(4-((1H-indol-1-yl)methyl)phenyl)-5-(difluoromethyl)-1,3,4-oxadiazole]",IC50,hHDAC6; [1],3040 nM
"FC(F)c1nnc(-c2ccc(Cn3nnc4cccnc43)nc2)o1 [Example 23, 2-(6-((3H-[1,2,3]triazolo[4,5-b]pyridin-3-yl)methyl)pyridin-3-yl)-5-(difluoromethyl)-1,3,4-oxadiazole]",IC50,hHDAC6; [1],190 nM
"FC(F)c1nnc(-c2ccc(Cn3cc(-c4ccccc4)nn3)cn2)o1 [Example 42, 2-(difluoromethyl)-5-(5-((4-phenyl-1H-1,2,3-triazol-1-yl)methyl)pyridin-2-yl)-1,3,4-oxadiazole]",IC50,hHDAC6; [1],1990 nM
"FC(F)c1nnc(-c2ccc(Cn3ccc4cnccc43)cc2)o1 [Example 3, 2-(4-((1H-pyrrolo[3,2-c]pyridin-1-yl)methyl)phenyl)-5-(difluoromethyl)-1,3,4-oxadiazole]",IC50,hHDAC6; [1],4910 nM
"FC(F)c1nnc(-c2ccc(Cn3cc(-c4ccc(Cl)c(Cl)c4)nn3)nc2)o1 [Example 46, 2-(6-((4-(3,4-dichlorophenyl)-1H-1,2,3-triazol-1-yl)methyl)pyridin-3-yl)-5-(difluoromethyl)-1,3,4-oxadiazole]",IC50,hHDAC6; [1],37.9 nM
"FC(F)c1nnc(-c2ccc(Cn3nnc4cc(Cl)c(Cl)cc43)nc2)o1 [Example 24, 2-(6-((5,6-dichloro-1H-benzo[d][1,2,3]triazol-1-yl)methyl)pyridin-3-yl)-5-(difluoromethyl)-1,3,4-oxadiazole]",IC50,hHDAC5,> 10000 nM
same,IC50,hHDAC2,> 10000 nM
same,IC50,hHDAC3,> 10000 nM
same,IC50,hHDAC1,> 10000 nM
same,IC50,hHDAC4,8370 nM
same,IC50,hHDAC8,> 10000 nM
same,IC50,hHDAC7,> 10000 nM
same,IC50,hHDAC10,> 10000 nM
same,IC50,hHDAC6; [1],29.5 nM
same,IC50,hHDAC6; selectivity table,29.5 nM
same,IC50,hHDAC9,8620 nM
"O=C(c1nc2cc(Cl)c(Cl)cc2n1Cc1ccc(-c2nnc(C(F)F)o2)cc1)C(F)F [Example 9, 1-(5,6-dichloro-1-(4-(5-(difluoromethyl)-1,3,4-oxadiazol-2-yl)benzyl)-1H-benzo[d]imidazol-2-yl)-2,2-difluoroethanone]",IC50,hHDAC6; [1],236 nM
"O=c1n(-c2ccccc2)cnn1Cc1ccc(-c2nnc(C(F)F)o2)cc1 [Example 18, 1-(4-(5-(difluoromethyl)-1,3,4-oxadiazol-2-yl)benzyl)-4-phenyl-1H-1,2,4-triazol-5(4H)-one]",IC50,hHDAC6; [1],1160 nM
"FC(F)c1nnc(-c2ccc(Cn3nc4ccc(Br)cc4n3)nc2)o1 [Example 66, 2-(6-((5-bromo-2H-benzo[d][1,2,3]triazol-2-yl)methyl)pyridin-3-yl)-5-(difluoromethyl)-1,3,4-oxadiazole]",IC50,hHDAC6; [1],33.3 nM
"FC(F)c1nnc(-c2ccc(Cn3cnc4ccccc43)cc2)o1 [Example 8, 2-(4-((1H-benzo[d]imidazol-1-yl)methyl)phenyl)-5-(difluoromethyl)-1,3,4-oxadiazole]",IC50,hHDAC6; [1],387 nM
"FC(F)c1nnc(-c2ccc(Cn3cnc4cc(Cl)c(Cl)cc43)nc2)o1 [Example 22, 2-(6-((5,6-dichloro-1H-benzo[d]imidazol-1-yl)methyl)pyridin-3-yl)-5-(difluoromethyl)-1,3,4-oxadiazole]",IC50,hHDAC5,> 10000 nM
same,IC50,hHDAC2,> 10000 nM
same,IC50,hHDAC3,> 10000 nM
same,IC50,hHDAC1,> 10000 nM
same,IC50,hHDAC4,2400 nM
same,IC50,hHDAC8,> 10000 nM
same,IC50,hHDAC7,9400 nM
same,IC50,hHDAC10,> 10000 nM
same,IC50,hHDAC6; [1],22.4 nM
same,IC50,hHDAC6; selectivity table,22.4 nM
same,IC50,hHDAC9,6520 nM
"FC(F)c1nnc(-c2ccc(Cn3c(C(F)(F)F)nc4cc(Cl)c(Cl)cc43)nc2)o1 [Example 58, 2-(6-((5,6-dichloro-2-(trifluoromethyl)-1H-benzo[d]imidazol-1-yl)methyl)pyridin-3-yl)-5-(difluoromethyl)-1,3,4-oxadiazole]",IC50,hHDAC6; [1],121 nM
O=C1N(Cc2ccc(-c3nnc(C(F)F)o3)cc2)c2ccccc2C12CCOCC2 [Example 19],IC50,hHDAC6; [1],229 nM
Cc1cccc2nnn(Cc3ccc(-c4nnc(C(F)F)o4)cc3)c12 [Example 12],IC50,hHDAC6; [1],190 nM
"FC(F)c1nnc(-c2ccc(Cn3ccc4ncccc43)cc2)o1 [Example 2, 2-(4-((1H-pyrrolo[3,2-b]pyridin-1-yl)methyl)phenyl)-5-(difluoromethyl)-1,3,4-oxadiazole]",IC50,hHDAC6; [1],1040 nM
"FC(F)c1nnc(-c2ccc(Cn3cnc4cc(Br)ccc43)nc2)o1 [Example 63, 2-(6-((5-bromo-1H-benzo[d]imidazol-1-yl)methyl)pyridin-3-yl)-5-(difluoromethyl)-1,3,4-oxadiazole]",IC50,hHDAC6; [1],48.3 nM
COc1cccc(-c2cn(Cc3ccc(-c4nnc(C(F)F)o4)cn3)nn2)c1 [Example 50],IC50,hHDAC6; [1],43.5 nM
"FC(F)c1nnc(-c2ccc(Cn3cc(-c4ccc(Cl)cc4)nn3)cc2)o1 [Example 29, 2-(4-((4-(4-chlorophenyl)-1H-1,2,3-triazol-1-yl)methyl)phenyl)-5-(difluoromethyl)-1,3,4-oxadiazole]",IC50,hHDAC6; [1],95.6 nM
"FC(F)c1nnc(-c2ccc(Cn3cc(-c4ccncc4)nn3)cc2)o1 [Example 33, 2-(difluoromethyl)-5-(4-((4-(pyridin-4-yl)-1H-1,2,3-triazol-1-yl)methyl)phenyl)-1,3,4-oxadiazole]",IC50,hHDAC6; [1],188 nM
"FC(F)c1nnc(-c2ccc(Cn3cc(-c4ccsc4)nn3)cc2)o1 [Example 35, 2-(difluoromethyl)-5-(4-((4-(thiophen-3-yl)-1H-1,2,3-triazol-1-yl)methyl)phenyl)-1,3,4-oxadiazole]",IC50,hHDAC6; [1],131 nM
"Cc1c(-c2ccccc2)nnn1Cc1ccc(-c2nnc(C(F)F)o2)cc1 [Example 39, 2-(difluoromethyl)-5-(4-((5-methyl-4-phenyl-1H-1,2,3-triazol-1-yl)methyl)phenyl)-1,3,4-oxadiazole]",IC50,hHDAC6; [1],366 nM
